These results are taken from patent US7776903B2, “Pharmaceutical preparations containing substituted 2,5-diaminomethyl-1H-pyrroles” (priority 2002, dated 2010).

Molecules are shown by their SMILES. Like-named read-outs stand apart in the source and are kept apart here.

One assay deals with T1, 5-HT uptake (Rattus norvegicus, UniProt P31652).
T1 construct: Synaptosomes from rat brain regions were freshly isolated; from tissue; host or cells: rat brain synaptosomes (medulla and pons)
Put plainly: 5-HT uptake inhibition in rat brain synaptosomes (medulla and pons). Type of assay: biochemical. Particulars: conc. 10 (unit not given), [3H]-5-HT, 5 minutes. An excerpt:
(§1) c) Method for Determining Noradrenalin and the 5-HT Uptake Inhibition:
(§2) Synaptosomes from rat brain regions were freshly isolated for in vitro studies, as described in the publication “The isolation of nerve endings from brain” by E. G. Gray and V. P. Whittaker, J. Anatomy 96, pages 79-88, 1962. The corresponding literature description is hereby introduced as a reference and is deemed to be part of the disclosure.
(§3) The tissue (hypothalamus for the determination of noradrenalin uptake inhibition and medulla and pons for the determination of 5-HT uptake inhibition) was homogenised in ice-cooled 0.32 M sucrose (100 mg of tissue/1 mL) in a glass homogeniser with teflon pestle using five complete up and down strokes at 840 revolutions/minute.
(§4) The homogenate was centrifuged at 4° C. for 10 minutes at 1000 g. After subsequent centrifugation at 17000 g for 55 minutes, the synaptosomes (P2 fraction) were obtained, which were resuspended in 0.32 M glucose (0.5 mL/100 mg of original weight).
(§5) The particular uptake was measured in a 96-well microtitre plate. The volume was 250 μl and the incubation proceeded at room temperature (approx. 20-25° C.) under an O2 atmosphere.
(§6) The incubation time was 7.5 minutes for [^3H]-NA and 5 minutes for [^3H]-5-HT. The 96 samples were then filtered through a Unifilter GF/B® microtitre plate (Packard) and washed with […] of incubated buffer using a “Brabdel MPXR1-96T Cell-Harvester”. The Unifilter GF/B plate was dried for 1 hour at 55° C. The plate was then sealed with a Back seal® (Packard) and 35 μl of scintillation fluid were added per well (Ultima gold®, Packard). After sealing with a top seal® (Packard) and establishment of equilibrium (around 5 hours), radioactivity was determined in a “Trilux 1450 Microbeta” (Wallac).
(§7) The quantity of protein used in the above determination corresponded to the values known from the literature, as for example described in “Protein measurement with the folin phenol reagent”, Lowry et al., J. Biol. Chem., 193, 265-275, 1951. A detailed description of the method may also be found in the literature, for example in M. Ch. Frink, H.-H. Hennies, W. Engelberger, M. Haurand and B. Wilffert (1996) Arzneim.-Forsch./Drug Res. 46 (III), 11, 1029-1036. The corresponding literature descriptions are hereby introduced as a reference and are deemed to be part of the disclosure.

A further assay has as its target human μ opiate receptor (Homo sapiens, UniProt P35372). Briefly: Human μ opiate receptor binding assay with [3H]-naloxone, CHO-K1 membrane preparation. Particulars: for inhibition at 1 µM: read-out: Human ORm Nal inhibition [%]. The method, then:
b) Method for Determining Affinity for the Human μ opiate receptor
Receptor affinity for the human μ opiate receptor is determined in a homogeneous batch in microtitre plates. To this end, dilution series of the particular substituted 2,5-diaminomethyl-1H-pyrrole to be tested were incubated at room temperature for 90 minutes in a total volume of 250 μl with a receptor membrane preparation (15-40 μg of protein per 250 μl of incubation batch) of CHO-K1 cells, which express the human μ opiate receptor (RB-HOM receptor membrane preparation from NEN, Zaventem, Belgium) in the presence of 1 nmol/l of the radioactive ligand [^3H]-naloxone (NET719, from NEN, Zaventem, Belgium) and of 1 mg of WGA-SPA beads (wheat germ agglutinin SPA beads from Amersham/Pharmacia, Freiburg, Germany). The incubation buffer used is 50 mmol/l tris-HCl supplemented with 0.05 wt. % of sodium azide and with 0.06 wt. % of bovine serum albumin. 25 μmol/l of naloxone were additionally added to determine nonspecific binding. Once the ninety minute incubation time had elapsed, the microtitre plates were centrifuged off for 20 minutes at 1000 g and the radioactivity measured in a β-Counter (Microbeta-Trilux, from PerkinElmer Wallac, Freiburg, Germany. The percentage displacement of the radioactive ligand from its binding to the human μ opiate receptor was determined at a concentration of the substances to be tested of 1 μmol/l and stated as percentage inhibition of specific binding. On the basis of the percentage displacement by different concentrations of the compounds to be tested of the general formula I, IC50 inhibition concentrations which bring about 50% displacement of the radioactive ligand were calculated. Ki values for the test substances were obtained by conversion using the Cheng-Prusoff equation.

The next assay addresses T2, NA transporter (Rattus norvegicus, UniProt Q63380).
T2 construct: Synaptosomes from rat brain regions were freshly isolated; from tissue; host or cells: rat brain synaptosomes (hypothalamus)
Briefly: Noradrenalin uptake inhibition in rat brain synaptosomes (hypothalamus). Type of assay: biochemical. Particulars: conc. 10 (unit not given), [3H]-NA, 7.5 minutes.
Text: as §1, §2, §3, §4, §5, §6
The following characteristics were determined for the NA transporter: NA uptake: Km=0.32±0.11 μM
as §7

For another assay, the target named is T3, ORL-1 receptor (Homo sapiens, UniProt P41146).
T3 construct: expressed in transfected cells; host or cells: CHO (CHO-ORL1)
T3 sequence (P41146 whole entry): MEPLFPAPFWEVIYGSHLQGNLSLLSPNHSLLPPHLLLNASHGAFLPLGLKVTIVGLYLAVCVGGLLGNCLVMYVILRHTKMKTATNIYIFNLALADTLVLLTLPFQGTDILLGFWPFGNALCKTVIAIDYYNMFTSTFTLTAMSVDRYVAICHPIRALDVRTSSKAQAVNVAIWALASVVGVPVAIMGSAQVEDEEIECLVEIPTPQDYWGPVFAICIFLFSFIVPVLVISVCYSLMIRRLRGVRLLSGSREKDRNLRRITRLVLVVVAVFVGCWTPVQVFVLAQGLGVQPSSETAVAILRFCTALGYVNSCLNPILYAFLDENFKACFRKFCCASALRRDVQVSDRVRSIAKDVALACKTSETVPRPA
Put plainly: ORL-1 receptor binding assay with 3H-nociceptin/Orphanin FQ, membranes of recombinant CHO-ORL1 cells. Particulars: 3H-nociceptin/Orphanin FQ 0.5 nM. On the procedure: a) Method for Determining Affinity for the ORL-1 Receptor
The affinity of the particular substituted 2,5-diaminomethyl-1H-pyrrole of the general formula I for the ORL-1 receptor was determined in a receptor binding assay with ^3H-nociceptin/Orphanin FQ with membranes of recombinant CHO-ORL1 cells, as described by Ardati et al. in Mol. Pharmacol., 51, 1997, pages 816-824. The corresponding literature description is hereby introduced as a reference and is deemed to be part of the disclosure.
The concentration of ^3H-nociceptin/Orphanin FQ in these tests was 0.5 nM. The binding assays were in each case performed with 20 μg of membrane protein per 200 μl batch in 50 mM Hepes, pH 7.4, 10 mM MgCl2 and 1 mM EDTA. Binding to the ORL1 receptor was determined using 1 mg portions of WGA-SPA Beads (Amersham-Pharmacia, Freiburg, Germany), by one hour's incubation of the batch at room temperature (approx. 20-25° C.) and subsequent measurement in a Trilux scintillation counter (Wallac, Finland).

The mark [1] stands for this setting: [3H]-naloxone, from IC50 by Cheng-Prusoff equation, read-out: Human ORm Nal Ki.

human μ opiate receptor, sequence (P35372 whole entry): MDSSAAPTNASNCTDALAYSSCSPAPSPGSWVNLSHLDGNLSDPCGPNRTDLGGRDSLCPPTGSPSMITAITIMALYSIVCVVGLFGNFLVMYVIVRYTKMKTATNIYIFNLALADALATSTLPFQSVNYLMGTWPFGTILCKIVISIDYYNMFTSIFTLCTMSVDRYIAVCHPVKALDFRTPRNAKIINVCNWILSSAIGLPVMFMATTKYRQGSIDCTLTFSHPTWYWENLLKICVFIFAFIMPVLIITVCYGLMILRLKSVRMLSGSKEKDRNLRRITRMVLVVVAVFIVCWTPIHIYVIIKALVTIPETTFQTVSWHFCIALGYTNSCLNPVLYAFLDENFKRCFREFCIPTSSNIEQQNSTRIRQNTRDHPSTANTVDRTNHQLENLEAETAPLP
T2 sequence (Q63380 1-617): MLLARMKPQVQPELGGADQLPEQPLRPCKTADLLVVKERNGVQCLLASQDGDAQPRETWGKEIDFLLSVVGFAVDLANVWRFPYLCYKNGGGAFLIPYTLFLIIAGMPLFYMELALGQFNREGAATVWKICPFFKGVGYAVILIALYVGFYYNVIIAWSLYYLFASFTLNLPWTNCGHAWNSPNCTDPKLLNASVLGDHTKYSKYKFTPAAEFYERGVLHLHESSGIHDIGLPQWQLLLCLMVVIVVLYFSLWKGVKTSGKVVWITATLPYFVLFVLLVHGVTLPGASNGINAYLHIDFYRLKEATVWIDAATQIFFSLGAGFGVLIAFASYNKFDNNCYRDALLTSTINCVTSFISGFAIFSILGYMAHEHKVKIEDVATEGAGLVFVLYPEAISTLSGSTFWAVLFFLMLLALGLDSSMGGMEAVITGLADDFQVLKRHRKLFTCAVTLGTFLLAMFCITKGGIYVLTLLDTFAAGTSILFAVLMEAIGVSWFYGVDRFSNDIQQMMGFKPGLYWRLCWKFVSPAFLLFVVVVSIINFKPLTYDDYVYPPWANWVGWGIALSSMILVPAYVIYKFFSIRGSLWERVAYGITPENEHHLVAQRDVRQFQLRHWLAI
T1 sequence (P31652 whole entry): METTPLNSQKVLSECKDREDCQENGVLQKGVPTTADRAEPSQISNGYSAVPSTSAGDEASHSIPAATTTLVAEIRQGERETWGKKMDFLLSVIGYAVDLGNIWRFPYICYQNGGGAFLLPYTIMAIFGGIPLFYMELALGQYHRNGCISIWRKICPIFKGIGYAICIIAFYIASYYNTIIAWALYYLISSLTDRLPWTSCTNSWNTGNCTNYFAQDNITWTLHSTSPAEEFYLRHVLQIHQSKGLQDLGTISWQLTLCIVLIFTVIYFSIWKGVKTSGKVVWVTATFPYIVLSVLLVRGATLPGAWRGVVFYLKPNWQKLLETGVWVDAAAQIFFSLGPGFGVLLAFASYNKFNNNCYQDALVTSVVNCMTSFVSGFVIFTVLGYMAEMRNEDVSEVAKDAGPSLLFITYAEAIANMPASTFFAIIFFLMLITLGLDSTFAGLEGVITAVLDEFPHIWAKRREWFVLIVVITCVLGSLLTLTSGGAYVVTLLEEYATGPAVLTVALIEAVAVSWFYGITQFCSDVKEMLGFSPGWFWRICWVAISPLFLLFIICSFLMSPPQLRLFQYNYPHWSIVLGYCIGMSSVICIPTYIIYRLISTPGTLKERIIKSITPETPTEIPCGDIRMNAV

With `Cc1ccccc1C(c1ccc(CN2CCCCC2)n1C)N(C)C.Cl.Cl` (stereo not shown) [Example 3, Dimethyl-[(1-methyl-5-piperidin-1-ylmethyl-1H-pyrrol-2-yl)-o-tolyl-methyl]-amine dihydrochloride], the “Rat 5-HT uptake inhibition [%] conc. 10” value on 5-HT uptake was 30%.

Broadly, the Ki is a dissociation constant, usually derived from enzyme kinetics or from competition with a known ligand. By inhibition is commonly meant the change of the read-out against control, counted positive when it falls. In the case of `CN(C)C(c1ccc(F)cc1)c1ccc(CN2CCOCC2)n1C.Cl.Cl` (stereo not shown) [Example 6, [(4-Fluoro-phenyl)-(1-methyl-5-morpholin-4-ylmethyl-1H-pyrrol-2-yl)-methyl]-dimethyl-amine dihydrochloride], the Ki on human μ opiate receptor (setting [1]) came to 0.5 µM. In addition, at human μ opiate receptor, the inhibition at 1 µM was 21%. Further, the “Rat noradrenalin uptake inhibition [%], conc. 10” value at NA transporter came to 42%. Also, the “Rat 5-HT uptake inhibition [%] conc. 10” value on 5-HT uptake was 53%.

For `CCN(CC)Cc1ccc(C(c2ccccc2)N(C)C)n1C.Cl.Cl` (stereo not shown) [Example 7, [5-(Dimethylamino-phenyl-methyl)-1-methyl-1H-pyrrol-2-ylmethyl]-diethyl-amine dihydrochloride], the inhibition at 1 µM on human μ opiate receptor was 50%. Moreover, the “Rat noradrenalin uptake inhibition [%], conc. 10” value on NA transporter amounted to 52%. Also, on 5-HT uptake, the “Rat 5-HT uptake inhibition [%] conc. 10” value turned out to be 44%. Further, at ORL-1 receptor, the inhibition constant Ki was found to be 0.42 µM. The “Human ORL1 inhibition [%]” value on ORL-1 receptor (test concentration not given) is 42%.

`CN(C)C(c1ccc(Br)cc1)c1ccc(CN2CCCCC2)n1C.Cl.Cl` (stereo not shown) [Example 5, [(4-Bromo-phenyl)-(1-methyl-5-piperidin-1-ylmethyl-1H-pyrrol-2-yl)-methyl]-dimethyl-amine dihydrochloride]: the Ki on human μ opiate receptor (setting [1]) stood at 0.86 µM. Further, the inhibition at 1 µM at human μ opiate receptor came to 52%. For the same compound, the “Rat noradrenalin uptake inhibition [%], conc. 10” value at NA transporter came out at 91%. Also, the “Rat 5-HT uptake inhibition [%] conc. 10” value at 5-HT uptake is 39%.

Regarding `COc1ccccc1C(c1ccc(CN2CCCCC2)n1C)N(C)C.Cl.Cl` (stereo not shown) [Example 1, [(2-Methoxyphenyl)-(1-methyl-5-piperidin-1-ylmethyl-1H-pyrrol-2-yl)-methyl]-dimethyl-amine dihydrochloride], the “Rat noradrenalin uptake inhibition [%], conc. 10” value on NA transporter is 63%. For the same compound, at 5-HT uptake, the “Rat 5-HT uptake inhibition [%] conc. 10” value worked out at 77%.

Regarding `CCOC(=O)C(c1ccc(CN2CCOCC2)n1C)N1CCCC1.Cl.Cl` (stereo not shown) [Example 13, (1-Methyl-5-morpholin-4-ylmethyl-1H-pyrrol-2-yl)-pyrrolidin-1-yl-acetic acid ethyl ester dihydrochloride], at 5-HT uptake, the “Rat 5-HT uptake inhibition [%] conc. 10” value was found to be 28%.

As to `COc1ccccc1C(c1ccc(CN2CCCC2)n1C)N(C)C.Cl.Cl` (stereo not shown) [Example 2, [(2-Methoxyphenyl)-(1-methyl-5-pyrrolidin-1-ylmethyl-1H-pyrrol-2-yl)-methyl]-dimethyl-amine dihydrochloride], the inhibition at 1 µM on human μ opiate receptor was found to be 25%. Further, the “Rat noradrenalin uptake inhibition [%], conc. 10” value on NA transporter turned out to be 65%. Besides, on 5-HT uptake, the “Rat 5-HT uptake inhibition [%] conc. 10” value is listed as 76%.

For `CCOC(=O)C(c1ccc(CN2CCCCC2)n1C)N1CCCCC1` (stereo not shown) [Example 8, (1-Methyl-5-piperidin-1-ylmethyl-1H-pyrrol-2-yl)-piperidin-1-yl-acetic acid ethyl ester drochloride], at human μ opiate receptor (setting [1]), the Ki is 0.22 µM. In addition, the inhibition at 1 µM on human μ opiate receptor was found to be 69%. Besides, the “Rat noradrenalin uptake inhibition [%], conc. 10” value on NA transporter worked out at 33%.

For the compound `CCOC(=O)C(c1ccc(CN2CCCCC2)n1C)N1CCOCC1.Cl.Cl` (stereo not shown) [Example 9, (1-Methyl-5-piperidin-1-ylmethyl-1H-pyrrol-2-yl)-morpholin-4-yl-acetic acid ethyl eastr dihydrochloride], the “Rat 5-HT uptake inhibition [%] conc. 10” value on 5-HT uptake was determined as 26%.

Turning to `CCOC(=O)C(c1ccc(CN(CC)CC)n1C)N1CCOCC1.Cl.Cl` (stereo not shown) [Example 10, (5-Diethylaminomethyl-1-methyl-1H-pyrrol-2-yl)-morpholin-4-yl-acetic acid ethyl ester dihydrochloride], on human μ opiate receptor, the affinity corresponds to a Ki of 0.07 µM and the inhibition at 1 µM is 84%. On 5-HT uptake, the “Rat 5-HT uptake inhibition [%] conc. 10” value turned out to be 28%.

Regarding `CN(C)C(c1ccccc1Br)c1ccc(CN2CCCCC2)n1C.Cl.Cl` (stereo not shown) [Example 4, [(2-Bromo-phenyl)-(1-methyl-5-piperidin-1-ylmethyl-1H-pyrrol-2-yl)-methyl]-dimethyl-amine dihydrochloride], at 5-HT uptake, the “Rat 5-HT uptake inhibition [%] conc. 10” value is on record as 57%.
